Results on 17 compounds are retold here after patent US20260070887A1 (Shenzhen Zhongge Biological Technology Co., Ltd., priority 2022, published 2026).

Structures are written as SMILES. Like-named read-outs stand apart in the source and are kept apart here.

The subject of series [1] is OVCAR-3 cells. The experiment in a line: OVCAR-3 cell proliferation (Cell Titer-Glo, 10 days). The format is cell-based, human. Put shortly:
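IC50 was fitted by nonlinear regression of percent inhibition versus the 0.1% DMSO control. Luminescence was read with Cell Titer-Glo after 10 days of co-culture of logarithmic-phase cells (400/well) with compound at 0.12 nM–10 μM final, in medium with 20% fetal bovine serum and 0.01 mg/mL insulin.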
(Cellular ATP, detected with luciferase, serves as a proxy for viable cell number.)

Series [2] relates to HCT116 cells. Briefly: HCT116 cell anti-proliferation assay. The format is cell-based. Conditions: 6 days, Cell Titer-Glo. As for the experimental part: HCT116 (ATCC, CCL-247) cells were cultured in McCoy's 5a complete medium (Gibco, 12330-031) containing 10% fetal bovine serum (Gibco, 10099-141C), 100 U penicillin and 100 μg/mL streptomycin (Gibco, 15140-122). The Promega kit Cell Titer-Glo (Promega: G7572) was used in this method for test.
HCT116 cells were cultured in T75 cell flasks (Corning, 430641) and the cells were placed in a 37° C., 5% CO2 incubator. Cells were passaged when reaching a cell density of 70%-80%, approximately twice per week. To perform the experiment, the test compounds were dissolved in DMSO to prepare a 10 mM stock solution, and the test compounds were added to the 384-well cell test plate (Corning, 3765) at the predetermined concentration (19.5 nM-[…]) using ECHO. […] cells were digested and 150 cells (60 μL medium) were seeded per well in the test plate. The 384-well plate was then centrifuged at 500 rpm for 1 minute, and then placed in a 37° C., 5% CO2 incubator for 6 days of cultivation. Six days later, the cell culture plate was equilibrated for 10 minutes at room temperature, 25 μL of Cell Titer-Glo was added to each well, and the mixture was shaken and mixed well and let stand for 5 minutes. The luminescence values for samples in various wells were read using a microplate reader in Luminescence mode.
The percentage of inhibition of cell proliferation by the test compound at each concentration was calculated by comparing with the values of the control group (0.2% DMSO). The IC50 values of the compounds were obtained by concentration-inhibition rate nonlinear regression analysis of the test compounds using GraphPad Prism 9.

The nature of series [3]: PK study in ICR mice. The format is in vivo, mouse. Particulars: plasma, route and dose not given. Put shortly: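 Fasted ICR mice (3/group) dosed intravenously or by oral gavage; plasma sampled up to 24 h. Plasma levels measured by LC-MS/MS after protein precipitation. T½, AUC0-t, CL, Vss and F derived by noncompartmental analysis.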
The mark [4] stands for this setting: both sexes, mouse, read-out: AUC.
[5] abbreviates: both sexes, mouse, read-out: Cmax.

In general, IC50 refers to the concentration at which inhibition is half-maximal. A low value points to inhibition by little substance. In the case of `CC1Cn2c(cc3c(NC(=O)c4ccc(NS(=O)(=O)CCO)cc4N4CCC5(CC4)CC5)cccc32)C(C)O1` (single isomer, unassigned) [Compound 312-P2A, N-(1,3-dimethyl-3,4-dihydro-1H-[1,4]oxazino[4,3-a]indol-9-yl)-4-((2-hydroxyethyl)sulfonamido)-2-(6-azaspiro[2.5]oct-6-yl)benzamide], the figures for the IC50 in series [1] and in series [2] were not above 50 nM and 6700 nM, respectively.
What is called AUC is the area under the concentration-time curve, a measure of exposure. By Cmax is commonly meant the maximum level reached in the sampled fluid or tissue. For the compound `CC1Cn2c(cc3c(NC(=O)c4ccc(NS(=O)(=O)CCO)cc4N4CCC5(CC4)CC5)cccc32)C(C)O1` (single isomer, unassigned) [Compound 312-P3, N-(1,3-dimethyl-3,4-dihydro-1H-[1,4]oxazino[4,3-a]indol-9-yl)-4-((2-hydroxyethyl)sulfonamido)-2-(6-azaspiro[2.5]oct-6-yl)benzamide], the IC50 in series [1] was not above 50 nM; in series [2] (Homo sapiens, HCT-116, 144 h), more than 10000 nM. In series [3] (setting [4]), the AUC was found to be 32400 ng·h/mL. The Cmax in series [3] (setting [5]) stood at 2980 ng/mL.
As for `COC1c2cc3c(NC(=O)c4ccc(NS(=O)(=O)CCO)cc4N4CCC5(CC4)CC5)cccc3n2CCC1(F)F` (single isomer, unassigned) [Example 340-P2], the IC50 in series [1] is not above 50 nM; in series [2], 8500 nM.
With `CC1(C)Cn2c(nc3c(NC(=O)c4ccc(NS(=O)(=O)CCO)cc4N4CCC5(CC4)CC5)cccc32)CO1` [Compound 391, N-(3,3-dimethyl-3,4-dihydro-1H-benzo[4,5]imidazo[2,1-c][1,4]oxazin-9-yl)-4-((2-hydroxyethyl)sulfonamido)-2-(6-azaspiro[2.5]octan-6-yl)benzamide], the IC50 is not above 50 nM in series [1] (Homo sapiens, OVCAR-3, 240 h) and more than 10000 nM in series [2] (Homo sapiens, HCT-116, 144 h). Also, the AUC in series [3] (setting [4]) came to 38000 ng·h/mL. The Cmax in series [3] (setting [5]) turned out to be 4370 ng/mL.
The corresponding values for `CC1(C)Cn2c(cc3c(NC(=O)c4ccc(NS(=O)(=O)CCO)cc4N4CCC5(CC4)CC5)ccc(C#N)c32)CO1` [Compound 392, N-(6-cyano-3,3-dimethyl-3,4-dihydro-1H-[1,4]oxazino[4,3-a]indol-9-yl)-4-((2-hydroxyethyl)sulfonamido)-2-(6-azaspiro[2.5]oct-6-yl)benzamide] are not above 50 nM, more than 10000 nM, 50800 ng·h/mL and 5080 ng/mL.
The matching figures for `CC1(C)Cn2c(cc3c(NC(=O)c4ccc(NS(=O)(=O)CCO)cc4N4CCC(=C(F)F)CC4)ccc(C#N)c32)CO1` [Compound 393, N-(6-cyano-3,3-dimethyl-3,4-dihydro-1H-[1,4]oxazino[4,3-a]indol-9-yl)-2-(4-(difluoromethylene)piperidin-1-yl)-4-((2-hydroxyethyl)sulfonamido)benzamide]: 50 to 500 nM, more than 10000 nM, 22300 ng·h/mL and 3840 ng/mL.
As to `CC1(C)Cn2c(nc3c(NC(=O)c4ccc(NS(=O)(=O)CCO)cc4N4CCC(=C(F)F)CC4)cccc32)CO1` [Compound 394, 2-(4-(difluoromethylene)piperidin-1-yl)-N-(3,3-dimethyl-3,4-dihydro-1H-benzo[4,5]imidazo[2,1-c][1,4]oxazin-9-yl)-4-((2-hydroxyethyl)sulfonamido)benzamide], the IC50 was not above 50 nM in series [1] (Homo sapiens, OVCAR-3, 240 h) and more than 10000 nM in series [2] (Homo sapiens, HCT-116, 144 h). In series [3] (setting [4]), the AUC turned out to be 47800 ng·h/mL. For the same compound, the Cmax in series [3] (setting [5]) was 4220 ng/mL.
Turning to `CC1(C)OCCn2c1cc1c(NC(=O)c3ccc(NS(=O)(=O)CCO)cc3N3CCC(=C(F)F)CC3)cccc12` [Compound 395, 2-(4-(difluoromethylene)piperidin-1-yl)-N-(1,1-dimethyl-3,4-dihydro-1H-[1,4]oxazino[4,3-a]indol-9-yl)-4-((2-hydroxyethyl)sulfonamido)benzamide], the IC50 is 50 to 500 nM in series [1] (Homo sapiens, OVCAR-3, 240 h) and more than 10000 nM in series [2] (Homo sapiens, HCT-116, 144 h).
`O=C(Nc1cccc2c1cc1n2CC2CCC1O2)c1ccc(NS(=O)(=O)CCO)cc1N1CCC(=C(F)F)CC1` (stereo not shown) [Compound 398, 2-(4-(difluoromethylene)piperidin-1-yl)-4-((2-hydroxyethyl)sulfonamido)-N-(7,8,9,10-tetrahydro-6H-7,10-epoxyazeto[1,2-a]indol-1-yl)benzamide]: the IC50 in series [1] is not above 50 nM. In series [3], this compound had an AUC of 6992 ng·h/mL and a peak concentration (Cmax) of 1410 ng/mL. Further, the IC50 in series [2] is more than 10000 nM.
In series [1], `COc1ccc(NC(=O)c2ccc(NS(=O)(=O)CCO)cc2N2CCC(=C(F)F)CC2)c2cc3n(c12)CCOC3` [Compound 405, 2-(4-(difluoromethylene)piperidin-1-yl)-4-((2-hydroxyethyl)sulfonamido)-N-(6-methoxy-3,4-dihydro-1H-[1,4]oxazinyl[4,3-a]indol-9-yl)benzamide] registered an IC50 not above 50 nM. In addition, in series [3], the AUC is 27572 ng·h/mL and the Cmax stood at 4205 ng/mL. The compound also returned a concentration for half-maximal inhibition (IC50) in series [2] of more than 10000 nM.
Turning to `Nc1cc(NS(=O)(=O)CCO)cc(N2CCC3(CC2)CC3)c1C(=O)Nc1cccc(N2CCC(F)(F)CC2)c1` [Example 1, 2-amino-N-(3-(4,4-difluoropiperidin-1-yl)phenyl)-4-((2-hydroxyethyl)sulfonamide)-6-(6-azaspiro[2.5]octan-6-yl)benzamide], the IC50 in series [1] was not above 50 nM.
Regarding `CNc1cc(NS(=O)(=O)CCO)cc(N2CCC3(CC2)CC3)c1C(=O)Nc1cc(C)nc(N2CCC(F)(F)CC2)n1` [Example 4, N-(2-(4,4-difluoropiperidin-1-yl)-6-methylpyrimidin-4-yl)-4-(2-hydroxyethylsulfonamide)-2-methylamino-6-(6-azaspiro[2.5]octan-6-yl)benzamide], the figures for the IC50 in series [1] and in series [2] were not above 50 nM and 2600 nM, respectively.
For the compound `O=C(Nc1cccc2c1cc1n2CCOC1)c1ccc(NS(=O)(=O)CCO)cc1N1CCC2(CC1)CC2` [Example 235, N-(3,4-dihydro-1H-[1, 4]oxazino[4,3-a]indol-9-yl)-4-(2-hydroxyethylsulfonamido)-2-(6-azaspiro[2.5]octan-6-yl)benzamide], the IC50 was not above 50 nM in series [1] (Homo sapiens, OVCAR-3, 240 h) and more than 10000 nM in series [2] (Homo sapiens, HCT-116, 144 h). Further, the AUC in series [3] (setting [4]) is 5980 ng·h/mL. Besides, the Cmax in series [3] (setting [5]) was determined as 2990 ng/mL.
As for `O=C(Nc1ccc(F)c2c1nc1n2CCOC1)c1ccc(NS(=O)(=O)CCO)cc1N1CCC2(CC1)CC2` [Example 308, N-(6-fluoro-3,4-dihydro-1H-benzo[4,5]imidazo[2,1-c][1,4]oxazin-9-yl)-4-((2-hydroxyethyl)sulfonamido)-2-(6-azaspiro[2.5]octan-6-yl)benzamide], the IC50 was not above 50 nM in series [1] (Homo sapiens, OVCAR-3, 240 h) and more than 10000 nM in series [2] (Homo sapiens, HCT-116, 144 h). The AUC in series [3] (setting [4]) came to 5650 ng·h/mL. Further, the Cmax in series [3] (setting [5]) was 1100 ng/mL.
As to `N#Cc1ccc(NC(=O)c2ccc(NS(=O)(=O)CCO)cc2N2CCC(=C(F)F)CC2)c2cc3n(c12)CCOC3` [Example 364, N-(6-cyano-3,4-dihydro-1H-[1,4]oxazino[4,3-a]indol-9-yl)-2-(4-(difluoromethylene)piperidin-1-yl)-4-((2-hydroxyethyl)sulfonamido)benzamide], the IC50 is 50 to 500 nM in series [1] (Homo sapiens, OVCAR-3, 240 h) and 8200 nM in series [2] (Homo sapiens, HCT-116, 144 h).
Consider `CC1(O)CCCn2c1cc1c(NC(=O)c3ccc(NS(=O)(=O)CCO)cc3N3CCC4(CC3)CC4)cccc12` (stereo not shown) [Example 372], for which the IC50 was not above 50 nM in series [1] and more than 10000 nM in series [2].
As to `CC1(C)Cn2c(cc3c(NC(=O)c4ccc(NS(=O)(=O)CCO)cc4N4CCC5(CC4)CC5)ccc(OC(F)F)c32)CO1` [Example 523], the IC50 in series [1] was not above 50 nM. In series [3], this compound yielded an AUC of 99384 ng·h/mL and a Cmax of 7088 ng/mL.
